What was measured:
[1] = tested on: heart muscle cells of neonatal mice; experiment: Neonatal mice given beta blocker by retro-orbital injection (Examples 2 and 3): total cardiomyocytes, heart-body weight ratio; format: in vivo, mouse; conditions: retro-orbital injection twice a day, 1 μg/μl, 10 μl per g body weight; for heart-body-weight ratio: FIG. 17B, 18B; for total number of heart muscle cells (cardiomyocytes): P4 and P8 groups, FIG. 17A, 18A
Experimental: (§1) Metoprolol was dissolved in PBS (1 μg/μl). The metoprolol was administered to neonatal mice using retro-orbital injection twice a day at the dose of 10 μl solution each 1 g body weight In the 4-day-old group (P4), the drug administration was performed at 9 am and 3 μm, respectively, from P1 and P3, then only injections at 9 am were performed at P4. The hearts were isolated at P4 in the afternoon. In the 8-day-old group (P8), the drug administration was performed at 9 am and 3 μm, respectively, from P1 and P7, then only injections at 9 am were performed at P8. The hearts were isolated at P8 in the afternoon.
as §1, with “Alprenolol” for “Metoprolol”, “alprenolol” for “metoprolol”, “pm,” for “μm,”

[2] = tested on: cardiomyocytes of newborn mice; experiment: Mouse pharmacological treatment of newborn mice: binucleated cardiomyocytes, cardiomyocyte endowment, cell cycle activity, heart weight; format: in vivo; conditions: newborn mice; for increase in the proportion of binucleated cardiomyocytes: forskolin 1 μg/g, 1 i.p. injection per day, FIG. 12B
Experimental: […] An equal volume of phosphate buffered saline (PBS) was injected in the control groups.
Isolation of intact cardiomyocytes for quantification: We used a previously validated fixation digestion method to isolate intact cardiomyocytes from fresh or frozen myocardium for quantification (Mollova, M., et al. “Cardiomyocyte proliferation in human heart growth” Proceedings of the National Academy of Sciences January 2013, 110 (4) 1446-1451; DOI: 10.1073/pnas.1214608110). The myocardium was cut into 1 cubic millimeter (mm^3) sized tissue blocks followed by incubation with 3.7% formaldehyde at room temperature for 1.8 hours. After being washed with PBS 3 times to remove the formaldehyde, the fixed tissue blocks were digested in enzyme solution (Collagenase B, 3.6 mg/ml; Collagenase D, 4.8 mg/ml) at 37 degrees Celsius (° C.), with 10 revolutions per minute (rpm) overhead rotation. The digested cells were collected every 24 hours from the supernatant, and the undigested tissue was re-suspended with fresh enzyme solution until all of the tissue pieces were digested. All of the digested cells from the same heart were then combined and allowed to settle to the bottom of the tube. The cell pellet was collected for further study.
Counting of cardiomyocytes after fixation and digestion: All fractions from the digestion of a heart were combined in 2 milliliters (mL) PBS and cardiomyocytes were quantified using a hemocytometer.
Intact cardiomyocytes in suspension. To assess M-phase, intact cardiomyocytes were isolated by fixation-digestion. The solution containing the stained cells was then transferred to 8-well chambered cover glass (400 μl/well). After the cells were settled down to the bottom of the chambers, the number of mono/bi/multinucleated cardiomyocytes were counted with a fluorescence microscope, and the percentage of mono/bi/multinucleated cardiomyocytes was calculated. To quantify the proportion of H3P-positive cardiomyocytes, the concentration of stained cardiomyocytes in suspension (Ccardiomyocytes) was first measured using a hemocytometer. The cell suspension (400 μl) was then transferred to a well of a chamber slide, and the total number of H3P-positive cardiomyocytes (HH3P+) inside the well was counted with a TiE epifluorescence microscope. The proportion of the H3P-positive cardiomyocytes (PH3P+) was calculated using the following formula: […]
Heart sections: To determine S-phase, BrdU (40 μg/g body) was administered to P7 ICR mice and the hearts were resected at P8, fixed, and cryosectioned at 15 μm thickness. From each heart, four heart sections at a distance of 300 μm were selected and imaged by tile scanning with a Nikon A1R confocal microscope. The total number of BrdU-positive cardiomyocytes at the selected heart sections was counted. The total area of the selected heart sections was measured by Fiji software. The density of BrdU-positive cardiomyocytes (cells/mm^2) in the hearts was calculated using the following equation: […]
Intact cardiomyocytes in suspension. Cardiomyocytes were isolated from fresh or frozen (human or mouse) ventricle myocardium using the fixation-digestion method, followed by immunostaining as described above. The cells were then imaged and quantified with a Nikon A1R microscope for mono/bi/multi-nucleation.

[3] = tested on: human fetal cardiomyocytes; experiment: Cytokinesis failure in cultured human fetal cardiomyocytes (β-adrenergic receptor signaling pathway studies); format: cell-based; conditions: cultured human fetal cardiomyocytes, 10 μM, FIG. 14C
Experimental: Primary cardiomyocyte culture experiments: Neonatal (mouse or rat) cardiomyocytes or human fetal cardiomyocytes were plated in 4-well chamber slides pre-coated with fibronectin (10 μg/ml) at a density of 200,000 cells/well and cultured with DMEM/high glucose (for mouse and rat cardiomyocytes) or IMDM (for fetal human cardiomyocytes) containing 10% fetal bovine serum (FBS) and recombinant neuregulin 1 (rNRG1, 100 nanograms per milliliter (ng/ml)) overnight. All treatments and BrdU (30 micromolar (μM)) were added on the next day.
β-adrenergic receptor signaling pathway studies: Forskolin (10 μM), propranolol (10 μM), dobutamine (10 μM), or a combination of propranolol (10 μM) and dobutamine (10 μM) were added to the culture from day 1 to day 3. The cells were collected for examining gene expression or immunofluorescence microscopy at day 3.
Cardiomyocytes cultured on glass surfaces. […] The BrdU-positive nuclei, cell-cell boundaries (Pan-Cadherin antibody), and cardiomyocyte markers (α-actinin or troponin I antibody) were labeled by immunofluorescence. The stained cells were imaged under Nikon confocal microscope. The binucleated cardiomyocytes and all BrdU-positive cardiomyocytes were quantified using Fiji software.

[4] = tested on: cardiomyocytes from infants with ToF/PS; experiment: ToF/PS myocardium tissue (organotypic) culture: binucleated BrdU-labeled cardiomyocytes; format: cell-based, human; conditions: organotypic cultures of heart pieces from infants with ToF/PS, 10 μM, BrdU, FIG. 14E
Experimental: ToF/PS myocardium tissue culture: Discarded myocardium samples were collected during ToF/PS surgery, cut into ˜1 mm^3 tissue blocks, and cultured in IMDM media containing 10% FBS, recombinant neuregulin 1 (rNRG1, 100 ng/ml), and BrdU (30 μM) for 6 days. Samples were treated with forskolin (10 μM), propranolol (10 μM), dobutamine (10 μM), or a combination of propranolol (10 μM) and dobutamine (10 μM).
Cultured ToF/PS myocardium. Cardiomyocytes were isolated from cultured myocardium with the fixation-digestion method. After denaturing the DNA with 2N HCl and neutralization with 2 Normal (N) sodium hydroxide (NaOH), immunofluorescence antibody labeling was performed in solution. The proportion of binucleated and BrdU-positive was quantified with a Nikon A1R microscope.

Q: What does the source list for `COCCc1ccc(OCC(O)CNC(C)C)cc1` (centres unmarked) [Metoprolol, 1-[4-(2-methoxyethyl)phenoxy]-3-(propan-2-ylamino)propan-2-ol]?
A: heart-body-weight ratio [1]: did not alter; total number of heart muscle cells (cardiomyocytes) [1]: did not alter

Q: Which results are given for `C=CCc1ccccc1OCC(O)CNC(C)C` (centres unmarked) [alprenolol, 1-(propan-2-ylamino)-3-(2-prop-2-enylphenoxy)propan-2-ol]?
A: heart-body-weight ratio [1]: without altering; total number of heart muscle cells (cardiomyocytes) [1]: increases; heart weight ([2]; 2 i.p. injections per day, FIG. 16A, 16B): did not result in a change; increase of cardiomyocyte endowment ([2]; at P8, 2 i.p. injections per day, counting fixation-digested hearts, FIG. 12D, 12H): 24%; decrease of the proportion/formation of binucleated cardiomyocytes ([2]; treatment from P1 to P8, 2 i.p. injections per day (propranolol 10 μg/g; alprenolol 10 μg/g, 40 μg/g), FIG. 12C, 12G): 13%

Q: What does the source list for `CC(CCc1ccc(O)cc1)NCCc1ccc(O)c(O)c1` (centres unmarked) [dobutamine]?
A: binucleated cardiomyocytes as % of the Fsk-induced increase [3]: 95.2%; proportion of binucleated cardiomyocytes [4]: maximal increase

Q: How did the “increase in the proportion of binucleated cardiomyocytes” value ([2]; after 4 days) turn out when `C=C[C@@]1(C)CC(=O)[C@]2(O)[C@@]3(C)[C@@H](O)CCC(C)(C)[C@@H]3[C@H](O)[C@H](OC(C)=O)[C@@]2(C)O1` [forskolin] was run?
A: The value was 37%.

Q: What about the “increase in the proportion of binucleated cardiomyocytes” value ([2]; after 8 days) of the same compound?
A: Its value is 21%.
